Measured values from PMC7064328 (Environmental Health Perspectives, 2020).
Several values for one entry are separate records, joined by “and”; a condition that tells them apart may be missing. Equal values may be shown once.

Key:
[1] = Internal dosimetry of PFOA and GenX in maternal serum, maternal liver, amniotic fluid and whole embryos (UPLC-MS/MS); type: in vivo, mouse (CD-1)
Experimental: Solid tissues were homogenized in RODI water at a ratio of approximately 1:3 tissue mass (milligrams) to liquid volume (microliters). Maternal serum, amniotic fluid, and tissue homogenates ( 25μL ) were spiked with internal standard suspended in 0.1M formic acid in a denaturation step, followed by a subsequent protein crash using ice-cold acetonitrile. Samples were vortex mixed after addition of formic acid and acetonitrile and then centrifuged at 10,000×g for 5 min. Extract supernatants were separated using a Waters ACQUITY UPLC® (Waters Corporation) fitted with a Waters ACQUITY UPLC® BEH C18 Column ( 130Å; 1.7μm; 2.1mm×50mm ). Detection was performed using a Waters Quattro Premier™ XE tandem quadrupole mass spectrometer in negative ionization mode.

Pregnant CD-1 mice = test: Clinical chemistry of dam serum and urine; type: in vivo, mouse (CD-1); details: for ALB / ALP / ALT / AST / BUN / Chol / Cre / Glu / HDL / LDL / SDH / TBA / TP / Trig: dam serum; for Ucrea: dam urine
Experimental: Dam livers, kidneys, and placentas were trimmed and embedded by the NIEHS Mouse Embryo Phenotyping Core. Tissues collected at necropsy were fixed in 4% PFA for 72 h and paraffin embedded, and 5-μm sections were prepared and stained with hematoxylin and eosin (H&E). Pathology was evaluated and a pathology review conducted by S.A.E. Diplomate American College of Veterinary Pathologists (DACVP). Pathology reviews were conducted as an informed approach analysis [e.g., nonblinded analysis; see Sills et al. ([2019])]. Select tissue slides were scanned using the AT2 Scanner (Aperio). Images were then captured for publication using the ImageScope software; version 12.3.0.5056 (Aperio). Serum and urine obtained from dams in Block 2 were analyzed using the AU480 clinical chemistry analyzer (Beckman Coulter Inc.). Reagents and calibration standards used to measure alkaline phosphatase (ALP), alanine aminotransferase (ALT), aspartate aminotransferase (AST), blood urea nitrogen (BUN), serum creatinine, urine creatinine, glucose (Glu), total protein (TP), triglyceride (Trig), high-density lipoprotein (HDL), cholesterol (Chol), and albumin (ALB) were purchased from Beckman Coulter Inc. Reagents for sorbitol dehydrogenase (SDH), total bile acid (TBA), and micro-TP were purchased from Sekisui Diagnostics. The reagent used to measure low-density lipoprotein (LDL) was purchased form Diazyme Laboratories.

In the case of `O=C(O)C(F)(F)C(F)(F)C(F)(F)C(F)(F)C(F)(F)C(F)(F)C(F)(F)F` [PFOA, Perfluorooctanoic acid], the Amniotic fluid concentration ([1]; E11.5, 1 mg/kg/d) was 4.6 ± 2.8 µg/mL, the Maternal liver concentration ([1]; E11.5, 1 mg/kg/d) was 48.3 ± 12.5 µg/g and the Maternal serum concentration ([1]; E11.5, 1 mg/kg/d) was 25.4 ± 3.7 µg/mL. It also gave a Whole embryo concentration ([1]; E11.5, 1 mg/kg/d) of 0.80 ± 0.10 µg/g, an Amniotic fluid concentration ([1]; E11.5, 5 mg/kg/d) of 8.8 ± 2.7 µg/mL and a Maternal liver concentration ([1]; E11.5, 5 mg/kg/d) of 151.5 ± 18.5 µg/g. The Maternal serum concentration ([1]; E11.5, 5 mg/kg/d) was 117.3 ± 20.6 µg/mL, the Whole embryo concentration ([1]; E11.5, 5 mg/kg/d) was 2.34 ± 0.27 µg/g and 2.34 ± 0.3 µg/g and the Female embryo concentration ([1]; E17.5, 1 mg/kg/d) was 5.78 ± 0.81 µg/g. It also gave a Male embryo concentration ([1]; E17.5, 1 mg/kg/d) of 5.78 ± 0.82 µg/g, a Maternal liver concentration ([1]; E17.5, 1 mg/kg/d) of 181.1 ± 46.0 µg/g and a Maternal serum concentration ([1]; E17.5, 1 mg/kg/d) of 18.7 ± 3.2 µg/mL. The Whole embryo concentration ([1]; E17.5, 1 mg/kg/d) was 5.78 ± 0.71 µg/g, the Female embryo concentration ([1]; E17.5, 5 mg/kg/d) was 16.1 ± 2.75 µg/g and the Male embryo concentration ([1]; E17.5, 5 mg/kg/d) was 16.9 ± 1.88 µg/g. For the same molecule, the Maternal liver concentration ([1]; E17.5, 5 mg/kg/d) was 159.2 ± 21.7 µg/g, the Maternal serum concentration ([1]; E17.5, 5 mg/kg/d) was 95.1 ± 14.1 µg/mL and the Whole embryo concentration ([1]; E17.5, 5 mg/kg/d) was 16.4 ± 1.75 µg/g. For the same molecule, the “Maximum bioaccumulation in maternal liver” value ([1]; by E17.5, regardless of PFOA dose group) was 160–180 μg PFOA/g liver, the “Dam serum Trig lowered vs controls” value (Pregnant CD-1 mice; E11.5, 1 mg/kg/d) was 37% and the “Dam serum Trig lowered vs controls” value (Pregnant CD-1 mice; E11.5, 5 mg/kg/d) was 58%. The “Serum Glu lower relative to controls” value (Pregnant CD-1 mice; E11.5, 5 mg/kg/d, p=0.06) was 20%, the “Dam serum Trig lower vs controls” value (Pregnant CD-1 mice; E17.5, 5 mg/kg/d) was 66% and the “LDL lower vs controls” value (Pregnant CD-1 mice; E17.5, 5 mg/kg/d) was 50%. For the same molecule, the “ALT increase relative to controls” value (Pregnant CD-1 mice; Table 2 (E11.5), 5 mg/kg/d, not statistically significant) was 172%, the ALB (Pregnant CD-1 mice; E11.5, 1 mg/kg/d) was 2.42±0.22 (5) g/dL and the ALP (Pregnant CD-1 mice; E11.5, 1 mg/kg/d) was 54.6±4.4 (5) U/L. For the same molecule, the ALT (Pregnant CD-1 mice; E11.5, 1 mg/kg/d) was 28.8±11.5 (5) U/L, the AST (Pregnant CD-1 mice; E11.5, 1 mg/kg/d) was 144.6±167.6 (5) U/L and the BUN (Pregnant CD-1 mice; E11.5, 1 mg/kg/d) was 15.0±2.7 (5) mg/dL. The Chol (Pregnant CD-1 mice; E11.5, 1 mg/kg/d) was 68.8±18.0 (5) mg/dL, the Cre (Pregnant CD-1 mice; E11.5, 1 mg/kg/d) was 0.2±0.05 (5) mg/dL and the Glu (Pregnant CD-1 mice; E11.5, 1 mg/kg/d) was 278.4±27.8 (5) mg/dL. The HDL (Pregnant CD-1 mice; E11.5, 1 mg/kg/d) was 34.8±10.9 (5) mg/dL, the LDL (Pregnant CD-1 mice; E11.5, 1 mg/kg/d) was 12.2±1.9 (5) mg/dL and the SDH (Pregnant CD-1 mice; E11.5, 1 mg/kg/d) was 8.4±7.8 (5) U/L. For the same molecule, the TBA (Pregnant CD-1 mice; E11.5, 1 mg/kg/d) was 1.5±0.58 (4) μM/L, the TP (Pregnant CD-1 mice; E11.5, 1 mg/kg/d) was 4.04±0.3 (5) g/dL and the Trig (Pregnant CD-1 mice; E11.5, 1 mg/kg/d) was 130.4±16.2 (5) mg/dL. For the same molecule, the ALB (Pregnant CD-1 mice; E11.5, 5 mg/kg/d) was 2.36±0.21 (5) g/dL, the ALP (Pregnant CD-1 mice; E11.5, 5 mg/kg/d) was 56.6±35.6 (5) U/L and the ALT (Pregnant CD-1 mice; E11.5, 5 mg/kg/d) was 70.8±16.2 (5) U/L. The AST (Pregnant CD-1 mice; E11.5, 5 mg/kg/d) was 92.6±20.3 (5) U/L, the BUN (Pregnant CD-1 mice; E11.5, 5 mg/kg/d) was 15.8±1.3 (5) mg/dL and the Chol (Pregnant CD-1 mice; E11.5, 5 mg/kg/d) was 69.4±9.9 (5) mg/dL. The Cre (Pregnant CD-1 mice; E11.5, 5 mg/kg/d) was 0.18±0.03 (5) mg/dL, the Glu (Pregnant CD-1 mice; E11.5, 5 mg/kg/d) was 220.4±22.1 (5) mg/dL and the HDL (Pregnant CD-1 mice; E11.5, 5 mg/kg/d) was 42.6±4.0 (5) mg/dL. For the same molecule, the LDL (Pregnant CD-1 mice; E11.5, 5 mg/kg/d) was 10.6±1.5 (5) mg/dL, the SDH (Pregnant CD-1 mice; E11.5, 5 mg/kg/d) was 12.4±8.3 (5) U/L and the TBA (Pregnant CD-1 mice; E11.5, 5 mg/kg/d) was 2.0±0.0 (5) μM/L. The TP (Pregnant CD-1 mice; E11.5, 5 mg/kg/d) was 3.78±0.22 (5) g/dL, the Trig (Pregnant CD-1 mice; E11.5, 5 mg/kg/d) was 86.4±15.8 (5) mg/dL and the ALB (Pregnant CD-1 mice; E17.5, 1 mg/kg/d) was 2.04±0.09 (5) g/dL. For the same molecule, the ALP (Pregnant CD-1 mice; E17.5, 1 mg/kg/d) was 50.2±4.2 (5) U/L, the ALT (Pregnant CD-1 mice; E17.5, 1 mg/kg/d) was 7.0±4.3 (5) U/L and the AST (Pregnant CD-1 mice; E17.5, 1 mg/kg/d) was 73.0±14.0 (5) U/L. The BUN (Pregnant CD-1 mice; E17.5, 1 mg/kg/d) was 16.4±1.7 (5) mg/dL, the Chol (Pregnant CD-1 mice; E17.5, 1 mg/kg/d) was 83.8±20.0 (5) mg/dL and the Cre (Pregnant CD-1 mice; E17.5, 1 mg/kg/d) was 0.2±0.01 (5) mg/dL. The Glu (Pregnant CD-1 mice; E17.5, 1 mg/kg/d) was 121.0±17.3 (5) mg/dL, the HDL (Pregnant CD-1 mice; E17.5, 1 mg/kg/d) was 37.2±6.2 (5) mg/dL and the LDL (Pregnant CD-1 mice; E17.5, 1 mg/kg/d) was 24.0±10.7 (5) mg/dL. The SDH (Pregnant CD-1 mice; E17.5, 1 mg/kg/d) was 3.4±6.1 (5) U/L, the TBA (Pregnant CD-1 mice; E17.5, 1 mg/kg/d) was 3.0±1.2 (5) μM/L and the TP (Pregnant CD-1 mice; E17.5, 1 mg/kg/d) was 3.9±0.11 (5) g/dL. The Trig (Pregnant CD-1 mice; E17.5, 1 mg/kg/d) was 364.0±272.9 (5) mg/dL, the ALB (Pregnant CD-1 mice; E17.5, 5 mg/kg/d) was 1.53±0.27 (6) g/dL and the ALP (Pregnant CD-1 mice; E17.5, 5 mg/kg/d) was 74.8±23.8 (6) U/L. For the same molecule, the ALT (Pregnant CD-1 mice; E17.5, 5 mg/kg/d) was 16.8±7.7 (6) U/L, the AST (Pregnant CD-1 mice; E17.5, 5 mg/kg/d) was 172.2±63.1 (6) U/L and the BUN (Pregnant CD-1 mice; E17.5, 5 mg/kg/d) was 18.7±5.3 (6) mg/dL. The Chol (Pregnant CD-1 mice; E17.5, 5 mg/kg/d) was 68.5±16.4 (6) mg/dL, the Cre (Pregnant CD-1 mice; E17.5, 5 mg/kg/d) was 0.16±0.06 (6) mg/dL and the Glu (Pregnant CD-1 mice; E17.5, 5 mg/kg/d) was 112.0±15.8 (6) mg/dL. The HDL (Pregnant CD-1 mice; E17.5, 5 mg/kg/d) was 38.8±11.2 (6) mg/dL, the LDL (Pregnant CD-1 mice; E17.5, 5 mg/kg/d) was 11.0±3.0 (5) mg/dL and the SDH (Pregnant CD-1 mice; E17.5, 5 mg/kg/d) was 24.3±11.2 (6) U/L. For the same molecule, the TBA (Pregnant CD-1 mice; E17.5, 5 mg/kg/d) was 8.0±7.9 (6) μM/L, the TP (Pregnant CD-1 mice; E17.5, 5 mg/kg/d) was 2.8±0.39 (6) g/dL and the Trig (Pregnant CD-1 mice; E17.5, 5 mg/kg/d) was 159.0±65.5 (6) mg/dL. The Ucrea (Pregnant CD-1 mice; E11.5, 1 mg/kg/d) was 92.0±13.1 (4) mg/dL, the Ucrea (Pregnant CD-1 mice; E11.5, 5 mg/kg/d) was 50.1±33.8 (4) mg/dL and the Ucrea (Pregnant CD-1 mice; E17.5, 1 mg/kg/d) was 24.7±23.1 (2) mg/dL. For the same molecule, the Ucrea (Pregnant CD-1 mice; E17.5, 5 mg/kg/d) was 11.5±5.9 (3) mg/dL.
